# Experimental data as given in ChEMBL document CHEMBL1138490, “Gamma-aminobutyric acid amides of nortriptyline and fluoxetine display improved pain suppressing activity” (2009).
# Activity calls are given as the source filed them. No cut-off for these calls is given here.
# Columns and labels:
# Mus musculus [1] = experiment: Anxiolytic activity in BALB/c mouse assessed as velocity at equimolar oral dose relative to 20 mg/kg fluoxetine after 90 mins by open-field test (RVb= 7.07+/-0.51 cm/s); assay type: functional
# Mus musculus [2] = experiment: Antinociceptive activity in BALB/c mouse assessed as increase in paw withdrawal latency time at 10 mg/kg, po daily measured after 3 to 5 hrs on day 1 on day 1 to 11; assay type: functional, organism-based; set-up: dose 10 mg/kg
# Mus musculus [3] = experiment: Antinociceptive activity in BALB/c mouse assessed as increase in paw withdrawal latency time at 10 mg/kg, po equimolar dose of fluoxetine daily measured after 3 to 5 hrs on day 1 to 11; assay type: functional, organism-based; set-up: dose 10 mg/kg
# Mus musculus [4] = experiment: Antinociceptive activity against formalin-induced neurogenic pain in BALB/c mouse assessed paw licking, biting or shaking at 30 mg/kg, po administered 2 hrs before formalin challenge measured relative to control; assay type: functional, organism-based; set-up: dose 30 mg/kg
# Mus musculus [5] = experiment: Antinociceptive activity against formalin-induced neurogenic pain in BALB/c mouse assessed paw licking, biting or shaking during at 10 mg/kg, po administered 2 hrs before formalin challenge measured relative to control; assay type: functional, organism-based; set-up: dose 10 mg/kg
# Mus musculus [6] = experiment: Antinociceptive activity against formalin-induced neurogenic pain in BALB/c mouse assessed paw licking, biting or shaking at to 30 mg/kg, po equimolar dose of fluoxetine administered 2 hrs before formalin challenge measured relative to control; assay type: functional, organism-based; set-up: dose 30 mg/kg
# Mus musculus [7] = experiment: Antinociceptive activity against formalin-induced neurogenic pain in BALB/c mouse assessed paw licking, biting or shaking during at 10 mg/kg, po equimolar oral dose fluoxetine administered 2 hrs before formalin challenge measured relative to control; assay type: functional, organism-based; set-up: dose 10 mg/kg
# Mus musculus [8] = experiment: Anxiolytic activity in BALB/c mouse assessed as immobility at equimolar oral dose relative to 5 mg/kg fluoxetine after 90 mins by open-field test (RVb= 458.4+/-41 s); assay type: functional
# Mus musculus [9] = experiment: Anxiolytic activity in BALB/c mouse assessed as immobility at equimolar oral dose relative to 10 mg/kg fluoxetine after 90 mins by open-field test (RVb= 458.4+/-41 s); assay type: functional
# Mus musculus [10] = experiment: Anxiolytic activity in BALB/c mouse assessed as immobility at equimolar oral dose relative to 20 mg/kg fluoxetine after 90 mins by open-field test (RVb= 458.4+/-41 s); assay type: functional
# Mus musculus [11] = experiment: Anxiolytic activity in BALB/c mouse assessed as distance moved at equimolar oral dose relative to 5 mg/kg fluoxetine after 90 mins by open-field test (RVb= 8485+/-610 cm); assay type: functional
# Mus musculus [12] = experiment: Anxiolytic activity in BALB/c mouse assessed as distance moved at equimolar oral dose relative to 10 mg/kg fluoxetine after 90 mins by open-field test (RVb= 8485+/-610 cm); assay type: functional
# Mus musculus [13] = experiment: Anxiolytic activity in BALB/c mouse assessed as distance moved at equimolar oral dose relative to 20 mg/kg fluoxetine after 90 mins by open-field test (RVb= 8485+/-610 cm); assay type: functional
# Mus musculus [14] = experiment: Anxiolytic activity in BALB/c mouse assessed as velocity at equimolar oral dose relative to 5 mg/kg fluoxetine after 90 mins by open-field test (RVb= 7.07+/-0.51 cm/s); assay type: functional
# Mus musculus [15] = experiment: Anxiolytic activity in BALB/c mouse assessed as velocity at equimolar oral dose relative to 10 mg/kg fluoxetine after 90 mins by open-field test (RVb= 7.07+/-0.51 cm/s); assay type: functional
# Mus musculus [16] = experiment: Antinociceptive activity in BALB/c mouse assessed as paw withdrawal latency at 0.4 mg/kg, po after 2 to 4 hrs by hot plate method; assay type: functional, organism-based; set-up: dose 0.4 mg/kg
# Mus musculus [17] = experiment: Antinociceptive activity in BALB/c mouse assessed as […] at 10 mg/kg, po equimolar dose of nortriptyline after 240 mins by hot plate method; assay type: functional, organism-based; set-up: dose 10 mg/kg
# Mus musculus [18] = experiment: Antinociceptive activity in BALB/c mouse assessed as […] at 20 to 40 mg/kg, po equimolar dose of nortriptyline after 240 mins by hot plate method; assay type: functional, organism-based
# Mus musculus [19] = experiment: Antinociceptive activity in BALB/c mouse assessed as paw withdrawal latency at 0.4 mg/kg, po equimolar dose of nortriptyline after 2 to 4 hrs by hot plate method; assay type: functional, organism-based; set-up: dose 0.4 mg/kg
# Mus musculus [20] = experiment: Antinociceptive activity against formalin-induced pain in BALB/c mouse assessed paw licking, biting or shaking at 0.5 mg/kg, po administered 2 hrs before formalin challenge measured after 0 to 5 mins relative to control; assay type: functional, organism-based; set-up: dose 0.5 mg/kg
# Mus musculus [21] = experiment: Antinociceptive activity against formalin-induced pain in BALB/c mouse assessed paw licking, biting or shaking at 0.5 mg/kg, po administered 2 hrs before formalin challenge measured after 25 to 35 mins relative to control; assay type: functional, organism-based; set-up: dose 0.5 mg/kg
# Mus musculus [22] = experiment: Antinociceptive activity against formalin-induced pain in BALB/c mouse assessed paw licking, biting or shaking at 5 mg/kg, po administered 2 hrs before formalin challenge measured after 0 to 5 mins relative to control; assay type: functional, organism-based; set-up: dose 5 mg/kg
# Mus musculus [23] = experiment: Antinociceptive activity against formalin-induced pain in BALB/c mouse assessed paw licking, biting or shaking at 5 mg/kg, po administered 2 hrs before formalin challenge measured after 25 to 35 mins relative to control; assay type: functional, organism-based; set-up: dose 5 mg/kg
# Mus musculus [24] = experiment: Antinociceptive activity against formalin-induced pain in BALB/c mouse assessed paw licking, biting or shaking at 0.5 mg/kg, po equimolar dose of nortriptyline administered 2 hrs before formalin challenge measured after 0 to 5 mins relative to control; assay type: functional, organism-based; set-up: dose 0.5 mg/kg
# Mus musculus [25] = experiment: Antinociceptive activity against formalin-induced pain in BALB/c mouse assessed paw licking, biting or shaking at 0.5 mg/kg, po equimolar dose of nortriptyline administered 2 hrs before formalin challenge measured after 25 to 35 mins relative to control; assay type: functional, organism-based; set-up: dose 0.5 mg/kg
# Mus musculus [26] = experiment: Antinociceptive activity against formalin-induced pain in BALB/c mouse assessed paw licking, biting or shaking at 5 mg/kg, po equimolar dose of nortriptyline administered 2 hrs before formalin challenge measured after 0 to 5 mins relative to control; assay type: functional, organism-based; set-up: dose 5 mg/kg
# Mus musculus [27] = experiment: Antinociceptive activity against formalin-induced pain in BALB/c mouse assessed paw licking, biting or shaking at 5 mg/kg, po equimolar dose of nortriptyline administered 2 hrs before formalin challenge measured after 25 to 35 mins relative to control; assay type: functional, organism-based; set-up: dose 5 mg/kg
# Mus musculus [28] = experiment: Antiinflammatory activity against formalin-induced BALB/c mouse skin assessed as reduction in TNFalpha level at to 0.5 mg/kg, po; assay type: functional, organism-based; set-up: dose 0.5 mg/kg
# Rattus norvegicus = experiment: Antiinflammatory activity against gamma carrageenan-induced paw edema in Wistar rat assessed as paw volume at 5 mg/kg, po equimolar dose of nortriptyline administered 2 hrs before carrageenan challenge relative to control; assay type: functional, organism-based; set-up: dose 5 mg/kg
# Mus musculus [29] = experiment: Antinociceptive activity in BALB/c mouse assessed as […] at 0.25 mg/kg, po after 240 mins by hot plate method; assay type: functional, organism-based; set-up: dose 0.25 mg/kg
# Mus musculus [30] = experiment: Antinociceptive activity in BALB/c mouse assessed as […] at 4.5 mg/kg, po after 240 mins by hot plate method; assay type: functional, organism-based; set-up: dose 4.5 mg/kg
# Mus musculus [31] = experiment: Antinociceptive activity in BALB/c mouse assessed as […] at 0.5 mg/kg, po equimolar dose of nortriptyline after 240 mins by hot plate method; assay type: functional, organism-based; set-up: dose 0.5 mg/kg
# Mus musculus [32] = experiment: Antinociceptive activity in BALB/c mouse assessed as […] at 0.25 mg/kg, po equimolar dose of nortriptyline after 240 mins by hot plate method; assay type: functional, organism-based; set-up: dose 0.25 mg/kg
# Mus musculus [33] = experiment: Antinociceptive activity in BALB/c mouse assessed as […] at 4.5 mg/kg, po equimolar dose of nortriptyline after 240 mins by hot plate method; assay type: functional, organism-based; set-up: dose 4.5 mg/kg
# Mus musculus [34] = experiment: Antinociceptive activity in BALB/c mouse assessed as […] at 10 mg/kg, po after 240 mins by hot plate method; assay type: functional, organism-based; set-up: dose 10 mg/kg
smiles,measurement,setting,value
CN(CCC(Oc1ccc(C(F)(F)F)cc1)c1ccccc1)C(=O)CCCN.Cl (stereo not given),Activity,Mus musculus [1],5.39 cm/s
same,Activity,Mus musculus [2],Active
same,Activity,Mus musculus [3],Active
same,Activity,Mus musculus [4],Active
same,Activity,Mus musculus [5],Active
same,Activity,Mus musculus [6],Active
same,Activity,Mus musculus [7],Active
same,Activity,Mus musculus [8],501.5 s
same,Activity,Mus musculus [9],536.3 s
same,Activity,Mus musculus [10],639.9 s
same,Activity,Mus musculus [11],7767 cm
same,Activity,Mus musculus [12],8003 cm
same,Activity,Mus musculus [13],6462 cm
same,Activity,Mus musculus [14],6.47 cm/s
same,Activity,Mus musculus [15],6.67 cm/s
same,Activity,Mus musculus [16],Active
same,Activity,Mus musculus [17],Active
same,Activity,Mus musculus [18],Active
same,Activity,Mus musculus [19],Active
CNCCC=C1c2ccccc2CCc2ccccc21,Activity,Mus musculus [20],Active
same,Activity,Mus musculus [21],Active
same,Activity,Mus musculus [22],Active
same,Activity,Mus musculus [23],Active
same,Activity,Mus musculus [24],Active
same,Activity,Mus musculus [25],Active
same,Activity,Mus musculus [26],Active
same,Activity,Mus musculus [27],Active
same,Activity,Mus musculus [28],Active
same,Activity,Rattus norvegicus,Active
same,Activity,Mus musculus [29],Active
same,Activity,Mus musculus [30],Active
same,Activity,Mus musculus [31],Active
same,Activity,Mus musculus [32],Active
same,Activity,Mus musculus [33],Active
CNCCC(Oc1ccc(C(F)(F)F)cc1)c1ccccc1 (stereo not given),Activity,Mus musculus [34],Active
